Measurements from article PMC7534336, “New classes of potent heparanase inhibitors from ligand-based virtual screening” (Journal of Enzyme Inhibition and Medicinal Chemistry, 2020).
“And” between values parts separate entries of the source, which are not always exact repeats. Equal entries are not always repeated. Where two headings read alike, the source gives them in different places. Each block holds one compound with its values, some of them ahead of it.

Assays:
[1] = biological target: heparanase; settings: literature value of reference inhibitor 6; read-out: reported IC50; cited from earlier work
[2] = tested on: HT1080 cells; assay: Matrigel cell invasion assay, HT1080; type: cell-based, human; settings: 24 h of treatment; for inhibition at 10 µM: concentration tested 10 µM
Experimental: (§1) Cells were pre-treated with the indicated drug concentrations in complete medium for 24 h. Then, cells were harvested, resuspended in serum-free medium, and transferred (2.5 × 10^4 cells per filter) to the upper chamber of 24-well Transwell plates (Costar, Corning Inc., Corning, NY) previously coated with Growth Factor Reduced Matrigel (BD Biosciences, San Jose, CA). The same drug concentration used for cell pre-treatment was added to both the upper and lower chambers. After 24 h of incubation, cells that invaded the Matrigel were stained with SRB and then counted through a microscope at 40× −100× magnification depending on cell density. Data were expressed as the % inhibition of cell invasion, with respect to cell invasion in the absence of drugs.

[3] = tested on: U87MG cells; assay: Matrigel cell invasion assay, U87MG; type: cell-based, human; settings: 24 h of treatment; for inhibition at 10 µM: concentration tested 10 µM
Experimental: as §1

[4] = tested on: U2OS cells; assay: Matrigel cell invasion assay, U2OS; type: cell-based, human; settings: 24 h of treatment; for inhibition at 10 µM: concentration tested 10 µM
Experimental: as §1

[5] = biological target: human GS3 heparanase (Homo sapiens, UniProt Q9Y251); assay: fondaparinux assay of heparanase enzymatic activity (WST-1 colorimetric); type: biochemical; settings: for % inhib @2.5 M ± SD: fixed concentration 2.5 µM (2.5 M [sic]); for % inhib @25 M ± SD: fixed concentration 25 µM (25 M [sic])
Sequence of human GS3 heparanase (Q9Y251 other isoform, or with tags, fused parts or gaps): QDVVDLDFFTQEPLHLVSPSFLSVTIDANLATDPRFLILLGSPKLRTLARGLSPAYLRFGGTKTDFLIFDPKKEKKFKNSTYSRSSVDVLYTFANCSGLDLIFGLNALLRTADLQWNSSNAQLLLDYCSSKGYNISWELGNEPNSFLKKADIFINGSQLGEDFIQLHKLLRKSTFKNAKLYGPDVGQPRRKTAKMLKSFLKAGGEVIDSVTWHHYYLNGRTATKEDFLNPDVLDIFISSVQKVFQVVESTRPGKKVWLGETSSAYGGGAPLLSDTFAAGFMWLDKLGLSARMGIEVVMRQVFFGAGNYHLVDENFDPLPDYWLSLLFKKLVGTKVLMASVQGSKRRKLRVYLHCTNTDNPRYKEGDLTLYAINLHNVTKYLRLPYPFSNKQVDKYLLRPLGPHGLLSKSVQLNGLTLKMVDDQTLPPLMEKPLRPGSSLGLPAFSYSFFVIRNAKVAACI
Description: To determine the activity of the heparanase inhibitors, a homogeneous assay based on the cleavage of the synthetic heparin oligosaccharide fondaparinux (Arixtra; Aspen) was used. The assay measures colorimetrically the appearance of the disaccharide product of heparanase-catalysed fondaparinux cleavage using the tetrazolium salt WST-1. The assay was essentially performed as described[39] with minor modifications. Briefly, Nunc 96-well (Thermo Fisher Scientific) plates were pre-treated with a solution of 4% BSA (bovine serum albumin, Sigma-Aldrich) in phosphate-buffered saline containing 0.05% Tween 20 (PBST), for 2 h at 37 °C, and then washed three times with PBST. […] The IC50 value for each compound was calculated by GraphPad software. Finally, the measurements were corrected by subtracting both the reagent background and the inner absorbance value of test compound.
Supporting Table S1 reports the structures of the fifty-five compounds purchased and tested, with information, for each compound, on the database from which it was retrieved, the reference inhibitor used to retrieve it and the similarity value with the reference inhibitor.

[6] = tested on: HT1080 (fibrosarcoma) cells; assay: proliferation assay (sulforhodamine B), HT1080; type: cell-based, human; settings: HT1080, 72 h, range 10–0.2 µM, SRB, read-out: IC50, inhibition of cell proliferation
Experimental: (§2) HT1080 (fibrosarcoma), U87MG (glioblastoma), and U2OS (osteosarcoma) human cell lines were purchased from the American Type Culture Collection (ATCC; Manassas, VA) and maintained according to the manufacturer’s recommendations. Briefly, HT1080 and U87MG were grown in modified Eagle medium (Thermo Fisher Scientific), while U2OS cells were grown in McCoy’s 5a medium (Thermo Fisher Scientific), all supplemented with 10% FCS (Thermo Fisher Scientific), 100 U/mL penicillin, and 100 μg/mL streptomycin (Thermo Fisher Scientific) and 2 mM L-glutamine (Thermo Fisher Scientific). Cell lines were maintained at 37 °C with a humidified 5% CO2 atmosphere.
(§3) HT1080, U87MG, and U2OS exponentially growing cells were seeded into 96-well plates and then, 24 h later, treated for 72 h with several dilutions of test compounds in the range 10 − 0.2 μM. Inhibition of cell proliferation was measured by means of a classical sulforhodamine B (SRB) assay[40] performed in triplicate.

[7] = tested on: U87MG (glioblastoma) cells; assay: proliferation assay (sulforhodamine B), U87MG; type: cell-based, human; settings: 72 h, range 10–0.2 µM, SRB, read-out: IC50, inhibition of cell proliferation
Experimental: as §2, §3

[8] = tested on: U2OS (osteosarcoma) cells; assay: proliferation assay (sulforhodamine B), U2OS; type: cell-based, human; settings: 72 h, range 10–0.2 µM, SRB, read-out: IC50, inhibition of cell proliferation
Experimental: as §2, §3

[9] = tested on: FGF-1, FGF-2, VEGF, MMP-9 and heparanase mRNA in HT1080 cells; assay: real-time qPCR of angiogenesis-related genes and heparanase in HT1080 cells; type: cell-based, human; settings: 1 µM, 24 h, q-PCR
Experimental: Total RNA was extracted from HT1080 cells, upon 24 h of treatment with test compounds (1 µM) and then retrotranscribed using the iScript Advanced cDNA Synthesis Kit for RT-qPCR (Bio-Rad Laboratories Inc., Hercules, CA) according to the manufacturer’s instructions. Real time quantitative PCR analysis was performed using SsoAdvanced Universal SYBR Green Supermix (Bio- Rad Laboratories Inc., Hercules, CA) and the following PrimePCR SYBR Green Assays: qHsaCID0015228 (heparanase), qHsaCED0002206 (FGF-1), qHsaCID0015510 (FGF-2), qHsaCID0011597 (MMP-9), and qHsaCED0043454 (VEGF-A) (Bio-Rad Laboratories Inc., Hercules, CA). The 7900HT Sequence Detection System instrument and software (Applied Biosystems) were used to quantify the relative expression of the target genes. Tests were performed in triplicate.

[10] = fondaparinux assay on human GS3 heparanase, mean of triplicates, read-out: IC50 (µM) ± SD, heparanase inhibitory activity
[11] = fondaparinux assay on human GS3 heparanase, mean of triplicates

- IC50 [5, 10]: < 0.5 µM and 0.38 µM
- IC50 ([6]; Homo sapiens, HT-1080): > 10 µM
- IC50 ([7]; Homo sapiens, U-87 MG): > 10 µM
- IC50 ([8]; Homo sapiens): > 10 µM
SMILES: O=C(Nc1cccc(-c2nc3ccccc3[nH]2)c1)c1ccc(Oc2ccc(C(=O)Nc3cccc(-c4nc5ccccc5[nH]4)c3)cc2)cc1 [Compound 29]
- inhibition at 2.5 µM ([2]; Homo sapiens, HT-1080, concentration tested 2.5 µM): 29 ± 4%
- inhibition at 2.5 µM ([3]; Homo sapiens, U-87 MG, concentration tested 2.5 µM): 15 ± 3%
- inhibition at 2.5 µM ([4]; Homo sapiens, U2OS, concentration tested 2.5 µM): 18 ± 3%

- % inhib @2.5 M ± SD ([5]; Table S1): 45 ± 7%
- % inhib @25 M ± SD ([5]; Table S1): 54 ± 8%
SMILES: O=C(O)c1cc(NC(=O)c2ccc(S(=O)(=O)c3ccc(C(=O)Nc4cc(C(=O)O)cc(C(=O)O)c4)cc3)cc2)cc(C(=O)O)c1 [Compound 52]

- IC50 ([5]; Table S1, fondaparinux assay on GS3 heparanase, read-out: IC50 (M) ± SD): 5.29 ± 0.84 µM
- IC50 (µM) ± SD, heparanase inhibitory activity [5, 11]: good inhibitory potencies
SMILES: O=C(Nc1ccc(O)cc1C(=O)O)c1ccc(S(=O)(=O)c2ccc(C(=O)Nc3ccc(O)cc3C(=O)O)cc2)cc1 [Compound 53]

- % inhib @2.5 M ± SD ([5]; Table S1): 22 ± 7%
- % inhib @25 M ± SD ([5]; Table S1): 72 ± 1%
SMILES: O=C(O)c1cccc(NC(=O)c2ccc(S(=O)(=O)c3ccc(C(=O)Nc4cccc(C(=O)O)c4)cc3)cc2)c1 [Compound 54]

- % inhib @2.5 M ± SD ([5]; Table S1): 30 ± 4%
- % inhib @25 M ± SD ([5]; Table S1): 43 ± 7%
SMILES: O=C(O)c1ccc(NC(=O)c2ccc(S(=O)(=O)c3ccc(C(=O)Nc4ccc(C(=O)O)cc4)cc3)cc2)cc1 [Compound 55]

- % inhib @2.5 M ± SD ([5]; Table S1): 20 ± 5%
- % inhib @25 M ± SD ([5]; Table S1): 51 ± 5%
SMILES: O=C(O)CCC(=O)Nc1ccc(Oc2ccc(S(=O)(=O)c3ccc(Oc4ccc(NC(=O)CCC(=O)O)cc4)cc3)cc2)cc1 [Compound 56]

- IC50 (µM) ± SD, heparanase inhibitory activity [5, 11]: good inhibitory potency
- IC50 [5, 10]: 2.08 ± 0.16 µM
SMILES: O=C(O)c1ccc2c(c1)C(=O)N(c1cccc(Oc3cccc(Oc4cccc(N5C(=O)c6ccc(C(=O)O)cc6C5=O)c4)c3)c1)C2=O [Compound 59]

- IC50 [6]: > 10 µM
- IC50 [7]: > 10 µM
- IC50 [8]: > 10 µM
SMILES: O=C(Nc1ccc(-c2nc3ccccc3[nH]2)cc1)c1ccc(C(=O)Nc2ccc(-c3nc4ccccc4[nH]3)cc2)cc1 [Compound 61]
- Invasion assay inhibition (%) HT1080 ([2]; concentration tested 2.5 µM): 41 ± 3%
- Invasion assay inhibition (%) U87MG ([3]; concentration tested 2.5 µM): 43 ± 5%
- Invasion assay inhibition (%) U2OS ([4]; concentration tested 2.5 µM): 80 ± 2%
- effect on transcription of heparanase [9]: not or very weakly affected
- effect on transcription of proangiogenic genes (FGF-1, FGF-2, VEGF, MMP-9) [9]: significant inhibitory effect

- IC50 [6]: > 10 µM
- IC50 [7]: > 10 µM
- IC50 [8]: > 10 µM
SMILES: O=C(O)c1ccc2c(c1)C(=O)N(c1ccc(NC(=O)c3cccc(C(=O)Nc4ccc(N5C(=O)c6ccc(C(=O)O)cc6C5=O)cc4Cl)c3)c(Cl)c1)C2=O [Compound 63]
- Invasion assay inhibition (%) HT1080 ([2]; concentration tested 2.5 µM): 39 ± 6%
- Invasion assay inhibition (%) U87MG ([3]; concentration tested 2.5 µM): 45 ± 4%
- Invasion assay inhibition (%) U2OS ([4]; concentration tested 2.5 µM): 75 ± 3%
- effect on transcription of heparanase [9]: not or very weakly affected
- effect on transcription of proangiogenic genes (FGF-1, FGF-2, VEGF, MMP-9) [9]: significant inhibitory effect

Continued, compound first:

SMILES: O=C(O)Cc1ccc2oc(-c3ccc(NC(=O)Nc4ccc(-c5nc6cc(CC(=O)O)ccc6o5)cc4F)c(F)c3)nc2c1 [Compound 6]
- IC50 [1]: 180 nM

SMILES: COc1ccc(C(=O)Nc2ccc(CNc3ccc(-c4nc5ccccc5[nH]4)cc3)cc2)cc1Br [Compound 7, reference compound]
- inhibition at 1 µM ([2]; Homo sapiens, HT-1080, concentration tested 1.0 µM): 88 ± 2%
- inhibition at 1 µM ([3]; Homo sapiens, U-87 MG, concentration tested 1.0 µM): 78 ± 3%
- inhibition at 1 µM ([4]; Homo sapiens, U2OS, concentration tested 1.0 µM): 82 ± 2%

SMILES: COc1cc(/N=N/c2cc(S(=O)(=O)O)cc3cc(S(=O)(=O)O)cc(O)c23)c(C)cc1NC(=O)Nc1cc(C)c(/N=N/c2cc(S(=O)(=O)O)cc3cc(S(=O)(=O)O)cc(O)c23)cc1OC [Compound 16]
- IC50 [5, 10]: < 0.5 µM and 0.37 µM
- IC50 ([6]; Homo sapiens, HT-1080): > 10 µM
- IC50 ([7]; Homo sapiens, U-87 MG): > 10 µM
- IC50 ([8]; Homo sapiens): > 10 µM
- inhibition at 10 µM ([2]; Homo sapiens, HT-1080): 93 ± 1%
- inhibition at 10 µM ([3]; Homo sapiens, U-87 MG): 10 ± 4%
- inhibition at 10 µM ([4]; Homo sapiens, U2OS): < 0%

SMILES: O=C(O)c1ccccc1N1C(=O)c2ccc(Oc3ccc(Oc4ccc5c(c4)C(=O)N(c4ccccc4C(=O)O)C5=O)cc3)cc2C1=O [Compound 58]
- IC50 [5, 10]: < 5 µM and 3.78 µM

SMILES: O=C(O)c1ccc(N2C(=O)c3ccc(Oc4cccc(Oc5ccc6c(c5)C(=O)N(c5ccc(C(=O)O)cc5)C6=O)c4)cc3C2=O)cc1 [Compound 60]
- % inhib @2.5 M ± SD ([5]; Table S1): 53 ± 12%
- % inhib @25 M ± SD ([5]; Table S1): 65 ± 4%

SMILES: Cc1ccc(C(=O)Nc2ccc(S(=O)(=O)O)c3cc(S(=O)(=O)O)cc(S(=O)(=O)O)c23)cc1NC(=O)c1cccc(NC(=O)Nc2cccc(C(=O)Nc3cc(C(=O)Nc4ccc(S(=O)(=O)O)c5cc(S(=O)(=O)O)cc(S(=O)(=O)O)c45)ccc3C)c2)c1 [suramin, reference compound]
- IC50 ([6]; Homo sapiens, HT-1080): > 10 µM
- IC50 ([7]; Homo sapiens, U-87 MG): > 10 µM
- IC50 ([8]; Homo sapiens): > 10 µM
- inhibition at 10 µM ([2]; Homo sapiens, HT-1080): 22 ± 5%
- inhibition at 10 µM ([3]; Homo sapiens, U-87 MG): < 0%
- inhibition at 10 µM ([4]; Homo sapiens, U2OS): < 0%
